Experimental findings from patent publication US20120245213A1, “HUMAN TYPE I TASTE RECEPTOR SUBUNIT 3 MODULATORS AND METHODS OF USING SAME” (priority 2009, published 2012) are described below.

Where two headings read alike, the source gives them in different places.

The target of experiment [1] is T1, human T1R2+T1R3 receptor (Homo sapiens, UniProt Q7RTX0).
T1 construct: expressed in transfected cells; host or cells: HEK293E
T1 sequence (Q7RTX0 21-852): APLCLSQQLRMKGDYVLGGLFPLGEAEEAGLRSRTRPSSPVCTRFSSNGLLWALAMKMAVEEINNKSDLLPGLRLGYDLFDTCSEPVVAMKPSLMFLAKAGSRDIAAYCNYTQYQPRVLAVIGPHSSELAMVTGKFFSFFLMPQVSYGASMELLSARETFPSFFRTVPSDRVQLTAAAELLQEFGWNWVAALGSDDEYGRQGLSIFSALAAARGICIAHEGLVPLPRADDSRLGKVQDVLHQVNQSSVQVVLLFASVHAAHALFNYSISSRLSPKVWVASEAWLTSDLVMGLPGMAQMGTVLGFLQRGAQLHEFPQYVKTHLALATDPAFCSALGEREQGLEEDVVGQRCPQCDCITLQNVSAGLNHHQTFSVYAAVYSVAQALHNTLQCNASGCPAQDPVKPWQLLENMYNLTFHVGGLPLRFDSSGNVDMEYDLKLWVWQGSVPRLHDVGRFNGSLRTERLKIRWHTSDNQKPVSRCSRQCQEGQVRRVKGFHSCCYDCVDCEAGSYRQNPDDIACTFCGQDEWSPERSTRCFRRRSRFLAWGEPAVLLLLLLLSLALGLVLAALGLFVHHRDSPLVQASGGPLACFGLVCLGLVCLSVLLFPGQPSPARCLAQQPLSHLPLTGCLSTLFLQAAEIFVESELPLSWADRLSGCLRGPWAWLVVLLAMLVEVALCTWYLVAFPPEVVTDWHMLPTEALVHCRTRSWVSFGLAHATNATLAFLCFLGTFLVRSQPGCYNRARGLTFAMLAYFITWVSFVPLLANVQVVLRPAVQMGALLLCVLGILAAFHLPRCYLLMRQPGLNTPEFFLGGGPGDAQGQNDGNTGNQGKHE
T1 sequence (Q8TE23 20-839 partner): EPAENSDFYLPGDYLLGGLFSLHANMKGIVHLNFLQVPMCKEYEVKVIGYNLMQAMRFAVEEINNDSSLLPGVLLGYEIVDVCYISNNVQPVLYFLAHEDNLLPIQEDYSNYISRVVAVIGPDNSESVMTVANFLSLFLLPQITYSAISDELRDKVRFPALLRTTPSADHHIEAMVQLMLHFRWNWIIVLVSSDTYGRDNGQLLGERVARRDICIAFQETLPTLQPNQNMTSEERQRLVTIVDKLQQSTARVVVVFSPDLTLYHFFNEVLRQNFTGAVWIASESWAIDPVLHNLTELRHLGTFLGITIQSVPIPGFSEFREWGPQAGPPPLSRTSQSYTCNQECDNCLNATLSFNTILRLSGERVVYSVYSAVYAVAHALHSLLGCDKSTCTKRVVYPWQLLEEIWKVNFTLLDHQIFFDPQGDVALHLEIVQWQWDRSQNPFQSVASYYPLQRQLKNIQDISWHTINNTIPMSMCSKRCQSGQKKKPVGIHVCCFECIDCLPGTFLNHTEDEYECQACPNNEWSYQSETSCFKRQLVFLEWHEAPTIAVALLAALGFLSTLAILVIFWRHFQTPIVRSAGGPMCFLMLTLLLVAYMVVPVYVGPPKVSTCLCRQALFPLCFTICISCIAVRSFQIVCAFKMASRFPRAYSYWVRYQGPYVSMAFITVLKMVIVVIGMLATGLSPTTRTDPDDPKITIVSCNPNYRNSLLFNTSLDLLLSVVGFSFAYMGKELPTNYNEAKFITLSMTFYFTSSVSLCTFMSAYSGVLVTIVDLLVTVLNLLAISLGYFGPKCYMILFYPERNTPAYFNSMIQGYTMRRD
Description: Heterologous calcium mobilization assay, HEK293 cells expressing human sweet receptor. In kind it is cell-based. As to conditions: for inhibition of the human sweet receptor: at up to 500 μM. As to the method: T1R2+T1R3 subunits were transfected into HEK cells along with the promiscuous Gq-type protein G16-gust44. Activation of receptors by agonists was followed using the calcium-sensitive fluorescent dye fluo-4-AM in a 96-well format with the fluorescent microplate reader Flexstation II (Molecular Devices). Inhibitors were added concomitantly with the sweetener sucralose at 2.5 mM (saturating concentration). […] Fluorescence signal (F) is expressed in arbitrary units (AU). The down arrow indicates the injection of the sweetener-inhibitors mixture on the cells. […] Peak calcium signal is expressed as ΔF/F in %, normalized to control (sucralose alone). Data are from a representative experiment, means±SD, done in quadruplicate.
HEK293E cells were cultured at 37° C. in Optimem GlutaMAX culture medium (Invitrogen) supplemented with 4% dialyzed fetal bovine serum. Cells were transfected with the DNA constructs using lipofectamine-2000 according to the manufacturer's protocol (Invitrogen). Briefly, cells were seeded onto 96-well poly-D-lysine plates (Corning) at about 12,500 cells/well 18 hours prior to transfection; and co-transfected with plasmid DNAs encoding […] and G 16-gust44 (0.1 μg total DNA/well; 0.2 μl lipofectamine/well). After 24 hours, the transfected cells were washed once with the culture medium and incubated for another 24 hours. The cells were washed with HBSS supplemented with 20 mM Hepes (HBSS-H), loaded with 3 μM Fluo-4AM (Molecular Probe) in HBSS-H buffer, incubated for 1.5 hours at room temperature, and then washed with HBSS-H and maintained in HBSS-H at 25° C. […] Sweeteners were added 30 seconds after the start of the scan at 2× concentration in 50 μl of HBSS-H while monitoring fluorescence for an additional 200 seconds at 2 seconds intervals. Where tested, inhibitors were added along with sweeteners to the cells.
The data were expressed as the mean±S.E. of quadruplicate or sextuplicate of the F/F values, or were normalized as described. The bar graph and curving-fitting routines were carried out using Graph-Pad Prism 3.0 (GraphPad Software, Inc.).
To determine if phenoxy-herbicides and fibrates had inhibitory properties, a cell-based assay with HEK 293 cells expressing the human sweet receptor composed of hT1R3 and hT1R2 was used.
IC50s are means±SD from at least 3 independent experiments.
A general note: Calcium flux is commonly read through the fluorescence of an indicator in the cells.

The test system of experiment [2] is sweet and umami (MSG) taste. The experiment in a line: Psychophysical self-experimentation on taste. Format: in vivo, human. The conditions noted are these: self-experimentation by one of the inventors. An excerpt: T1R3's role as a critical component of sweet and umami receptors in taste cells is well established (Zhao, supra; and Max, supra). T1R3, like gustducin, has also been implicated in glucose-sensing functions of gut endocrine cells and thereby in glucose homeostasis (Jang, supra).

The mark [3] stands for this setting: HEK 293 cells, hT1R2+hT1R3, 2.5 mM sucralose, read-out: IC50, inhibition of human sweet receptor.
[4] abbreviates: hT1R2+hT1R3 activated by 2.5 mM sucralose, mean (SD), at least 3 independent experiments, read-out: IC50 (μM (SD)).

For orientation: IC50 means the midpoint of a concentration-inhibition curve. As to `CC(Oc1cc(Cl)c(Cl)cc1Cl)C(=O)O` (centres unmarked) [2,4,5TPP, 2-(2,4,5-trichlorophenoxy) propanoic acid], the IC50 in experiment [1] fell in the range of 5 to 12 µM.

On to `O=C(O)COc1ccc(Cl)cc1` [4-CPA, (4-chlorophenoxy)acetic acid], for which the IC50 in experiment [1] is not below 142 µM.

As to `CC(C)(Oc1ccc(CCNC(=O)c2ccc(Cl)cc2)cc1)C(=O)O` [Bezafibric acid, 2-[4-(2-{[(4-chlorophenyl)carbonyl]amino}ethyl)phenoxy]-2-methylpropanoic acid, reference compound], the IC50 in experiment [1] (setting [3]) was in the range of 30 to 100 µM.

As for `CC(C)(Oc1ccc(Cl)cc1)C(=O)O` [Clofibric acid, 2-(4-chlorophenoxy)-2-methylpropanoic acid], in experiment [2], the “inhibition of sweet taste in vivo” value is “potently inhibited” and the “inhibition of umami (MSG) taste in vivo” value was “potently inhibited”.

Regarding `Cc1ccc(C)c(OCCCC(C)(C)C(=O)O)c1` [Gemfibrozil, 5-(2,5-dimethylphenoxy)-2,2-dimethylpentanoic acid, reference compound], the IC50 in experiment [1] (setting [3]) is 30 to 100 µM.

In the case of `O=C(O)Cc1c[nH]c2ccccc12` [IAA, 1H-indol-3-ylacetic acid], the “inhibition of the human sweet receptor” value in experiment [1] is “did not inhibit”. In experiment [1] (setting [4]), the half-maximal inhibitory concentration (IC50) is more than 1000 µM.

Regarding `O=C(O)CCCc1c[nH]c2ccccc12` [IBA, 4-(1H-indol-3-yl)butanoic acid], the “inhibition of the human sweet receptor” value in experiment [1] is reported as “did not inhibit”.

Take `O=C(O)CCc1c[nH]c2ccccc12` [IPA, 3-(1H-indol-3-yl)propanoic acid]: the “inhibition of the human sweet receptor” value in experiment [1] is reported as “did not inhibit”. The IC50 in experiment [1] (setting [4]) is more than 1000 µM.

Consider `Cc1cc(Cl)ccc1OC(C)C(=O)O` (centres unmarked) [MCPP, 2-(4-chloro-2-methylphenoxy) propanoic acid], for which the IC50 in experiment [1] was 5 to 12 µM.

Consider `O=C(O)Cc1cccc2ccccc12` [NAA, naphthalen-1-ylacetic acid], for which the IC50 in experiment [1] (setting [3]) was not below 142 µM.

With `O=C(O)Cc1ccccc1` [PAA, phenylacetic acid], in experiment [1], the IC50 was not below 142 µM.
